± gives the expanded uncertainty stated by the source.
Settings: Liquid, Closed cell (Static) method

In the case of `FC(F)(F)C1(F)OC1(F)F` (centres undefined) [2,2,3-trifluoro-3-(trifluoromethyl)oxirane], the “vapor or sublimation pressure” value (271.88 K) is reported as 302.2 ± 1.5 kPa, the “vapor or sublimation pressure” value (295.53 K) is reported as 649.9 ± 2.1 kPa and the “vapor or sublimation pressure” value (300.47 K) is reported as 745.6 ± 2.2 kPa. The “vapor or sublimation pressure” value (303.11 K) was 798.5 ± 2.3 kPa, the “vapor or sublimation pressure” value (306.5 K) was 874.7 ± 2.5 kPa and the “vapor or sublimation pressure” value (310.48 K) was 970.1 ± 2.7 kPa. The “vapor or sublimation pressure” value (312.64 K) was 1024.9 ± 2.9 kPa and the “vapor or sublimation pressure” value (318.16 K) was 1175.3 ± 3.1 kPa.

In the case of `FC(F)=C(F)C(F)(F)F` [hexafluoropropene], the “vapor or sublimation pressure” value (272.33 K) is reported as 327.1 ± 1.4 kPa, the “vapor or sublimation pressure” value (279.64 K) is reported as 420.7 ± 1.7 kPa and the “vapor or sublimation pressure” value (299.34 K) is reported as 763.3 ± 2.2 kPa. For the same molecule, the “vapor or sublimation pressure” value (302.24 K) was 825.7 ± 2.4 kPa, the “vapor or sublimation pressure” value (312.33 K) was 1077.3 ± 2.8 kPa and the “vapor or sublimation pressure” value (317.63 K) was 1232.1 ± 3.1 kPa.

Source: the NIST ThermoML archive (doi:10.1021/je900400v)
